Measurements from patent US9045491B2, “Thienyl [3,2-D] pyrimidin-4-one compounds, preparation method, pharmaceutical compositions and use thereof” (SHANGHAI INSTITUTE OF MATERIA MEDICA, CHINESE ACADEMY OF …, priority 2011, dated 2015).
Where a name gives a salt, the structure may show the parent alone.

What was measured:
Format in all cases: biochemical
[1] = biological target: T1, human DPP IV (Homo sapiens, UniProt P27487); assay: DPP IV activity screening (Ala-Pro-AMC fluorescence)
T1 construct: extracellular fragment of protease DPP IV (aa29-766); made in house; host or cells: baculovirus expression system Bac-to-Bac
Experimental: (§1) Screening method: dipeptidyl peptidase IV (DPP IV) activity screening, dipeptidyl peptidase 7 (DPP 7), dipeptidyl peptidase 8 (DPP 8) activity screening, and dipeptidyl peptidase 9 (DPP 9) activity screening.
Instruments: Microplate Reader (PerkinElmer, USA).
The linear change of fluorescence value at 460 nm in unit time was dynamically measured and DPP IV activity was obtained by calculation.
(§2) Sample treatment: the sample was dissolved in DMSO and stored in low temperature. The concentration of DMSO in the final system was controlled so that the detected activity was not affected.
(§3) The activity of sample was tested under the selected single concentration from preliminary screening, for example, 20 μg/mL. […] The software for calculation was Graphpad Prism 4 and the model used for fitting was sigmoidal dose-response (variable slope). For most inhibitor screening models, the bottom and top of the fitting curve were set to 0 and 100.

[2] = biological target: dipeptidyl peptidase 7 (DPP 7) (Homo sapiens, UniProt Q9UHL4); assay: DPP 7 activity screening; conditions: N.I. = No Inhibition
Experimental: as §1, §2, §3

[3] = biological target: T2, FAP (Homo sapiens, UniProt Q12884); assay: FAP inhibition (Table 1); conditions: N.I. = No Inhibition
T2 sequence (Q12884 1-760): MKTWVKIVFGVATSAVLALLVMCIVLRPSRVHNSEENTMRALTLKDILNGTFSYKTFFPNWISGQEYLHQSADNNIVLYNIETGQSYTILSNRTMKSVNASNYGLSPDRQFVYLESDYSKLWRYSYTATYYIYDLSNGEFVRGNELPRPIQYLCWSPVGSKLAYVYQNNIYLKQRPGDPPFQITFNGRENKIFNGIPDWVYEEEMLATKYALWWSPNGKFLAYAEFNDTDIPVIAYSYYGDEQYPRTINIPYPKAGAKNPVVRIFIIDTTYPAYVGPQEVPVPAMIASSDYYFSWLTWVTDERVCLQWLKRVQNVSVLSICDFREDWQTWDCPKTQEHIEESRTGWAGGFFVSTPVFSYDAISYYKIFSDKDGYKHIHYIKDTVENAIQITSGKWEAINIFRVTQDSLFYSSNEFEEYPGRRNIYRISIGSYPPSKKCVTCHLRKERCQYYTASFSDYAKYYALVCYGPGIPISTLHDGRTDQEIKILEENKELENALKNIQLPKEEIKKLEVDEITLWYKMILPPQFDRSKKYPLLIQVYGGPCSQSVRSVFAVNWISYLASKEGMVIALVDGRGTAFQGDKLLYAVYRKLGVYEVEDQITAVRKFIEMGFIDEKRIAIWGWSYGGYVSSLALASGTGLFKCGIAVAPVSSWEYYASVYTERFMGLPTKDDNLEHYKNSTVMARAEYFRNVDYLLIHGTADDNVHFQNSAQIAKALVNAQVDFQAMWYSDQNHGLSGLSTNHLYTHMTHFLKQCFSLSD

[4] = biological target: T3, human DPP 8 (Homo sapiens, UniProt Q6V1X1); assay: DPP 8 activity screening (Ala-Pro-AMC fluorescence); conditions: N.I. = No Inhibition
T3 construct: made in house; host or cells: insect cells, baculovirus Bac-to-Bac
Excerpt: as §1
(§4) Materials: human DPP IV, obtained extracellular fragment of protease DPP IV (aa29-766), was expressed and purified by our laboratory using baculovirus expression system Bac-to-Bac (purchased from GIBCO company) in accordance with the conventional experimental technology; human DPP 8 was obtained in insect cells by our laboratory using baculovirus expression system Bac-to-Bac (purchased from GIBCO company) in accordance with the conventional experimental technology; Human DPP 9 was obtained in insect cells by our laboratory using baculovirus expression system Bac-to-Bac (purchased from GIBCO company) in accordance with the conventional experimental technology; and the substrate Ala-Pro-AMC was synthesized by GL Biochem (Shanghai) Ltd.
(§5) Principle of Activity test: DPP IV, DPP 8 and DPP 9 can specifically hydrolyze the substrate Ala-Pro-AMC to form product AMC, and AMC is excited by 355 nm of UV light to generate 460 nm of emission light. The linear change of fluorescence value at 460 nm in unit time was dynamically measured and DPP IV activity was obtained by calculation.
as §2, §3

[5] = biological target: T4, Human DPP 9 (Homo sapiens, UniProt Q86TI2); assay: DPP 9 activity screening (Ala-Pro-AMC fluorescence); conditions: N.I. = No Inhibition
T4 construct: made in house; host or cells: insect cells, baculovirus Bac-to-Bac
Excerpt: as §1, §4, §5, §2, §3

T1 sequence (P27487 29-766): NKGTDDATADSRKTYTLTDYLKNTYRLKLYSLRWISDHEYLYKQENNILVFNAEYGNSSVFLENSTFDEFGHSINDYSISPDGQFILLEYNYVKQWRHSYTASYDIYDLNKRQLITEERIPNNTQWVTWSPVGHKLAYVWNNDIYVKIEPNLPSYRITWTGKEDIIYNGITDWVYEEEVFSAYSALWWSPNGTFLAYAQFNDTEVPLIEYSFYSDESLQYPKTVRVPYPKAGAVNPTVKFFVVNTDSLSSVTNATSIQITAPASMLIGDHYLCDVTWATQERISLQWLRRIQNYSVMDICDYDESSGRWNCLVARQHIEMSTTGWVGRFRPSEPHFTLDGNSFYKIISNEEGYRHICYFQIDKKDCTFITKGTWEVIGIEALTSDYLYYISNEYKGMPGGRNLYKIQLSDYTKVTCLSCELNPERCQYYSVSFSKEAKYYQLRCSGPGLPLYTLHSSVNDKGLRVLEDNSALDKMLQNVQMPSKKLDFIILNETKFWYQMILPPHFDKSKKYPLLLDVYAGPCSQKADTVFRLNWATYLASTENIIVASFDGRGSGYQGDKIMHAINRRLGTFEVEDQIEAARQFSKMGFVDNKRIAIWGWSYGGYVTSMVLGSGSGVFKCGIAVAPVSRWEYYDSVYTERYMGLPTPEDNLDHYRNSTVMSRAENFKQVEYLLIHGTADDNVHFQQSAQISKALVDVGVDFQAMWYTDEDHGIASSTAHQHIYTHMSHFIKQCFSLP
T3 sequence (Q6V1X1 whole entry): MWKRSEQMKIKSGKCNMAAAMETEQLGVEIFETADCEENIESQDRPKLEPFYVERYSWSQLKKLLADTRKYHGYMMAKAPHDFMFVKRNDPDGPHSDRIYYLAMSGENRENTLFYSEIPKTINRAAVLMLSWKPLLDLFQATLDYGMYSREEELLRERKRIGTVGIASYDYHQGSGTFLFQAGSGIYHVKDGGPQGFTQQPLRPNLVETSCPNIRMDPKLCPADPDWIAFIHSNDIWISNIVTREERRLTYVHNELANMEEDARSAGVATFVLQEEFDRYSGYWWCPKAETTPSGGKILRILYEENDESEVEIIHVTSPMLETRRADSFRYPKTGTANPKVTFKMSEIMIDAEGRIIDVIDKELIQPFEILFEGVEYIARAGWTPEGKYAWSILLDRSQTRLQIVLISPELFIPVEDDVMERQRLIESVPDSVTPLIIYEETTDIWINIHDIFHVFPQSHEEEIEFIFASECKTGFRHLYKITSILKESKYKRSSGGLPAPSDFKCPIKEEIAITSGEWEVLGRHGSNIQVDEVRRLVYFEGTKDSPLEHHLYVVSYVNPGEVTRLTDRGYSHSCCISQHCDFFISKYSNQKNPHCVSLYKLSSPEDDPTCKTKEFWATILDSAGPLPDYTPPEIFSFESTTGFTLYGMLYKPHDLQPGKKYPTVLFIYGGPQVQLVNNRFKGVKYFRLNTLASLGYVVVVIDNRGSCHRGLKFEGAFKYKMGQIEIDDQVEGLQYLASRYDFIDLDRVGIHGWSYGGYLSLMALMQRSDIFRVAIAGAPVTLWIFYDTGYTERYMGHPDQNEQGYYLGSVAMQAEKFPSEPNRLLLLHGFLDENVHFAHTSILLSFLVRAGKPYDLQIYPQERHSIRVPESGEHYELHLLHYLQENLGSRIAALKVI
T4 sequence (Q86TI2 whole entry): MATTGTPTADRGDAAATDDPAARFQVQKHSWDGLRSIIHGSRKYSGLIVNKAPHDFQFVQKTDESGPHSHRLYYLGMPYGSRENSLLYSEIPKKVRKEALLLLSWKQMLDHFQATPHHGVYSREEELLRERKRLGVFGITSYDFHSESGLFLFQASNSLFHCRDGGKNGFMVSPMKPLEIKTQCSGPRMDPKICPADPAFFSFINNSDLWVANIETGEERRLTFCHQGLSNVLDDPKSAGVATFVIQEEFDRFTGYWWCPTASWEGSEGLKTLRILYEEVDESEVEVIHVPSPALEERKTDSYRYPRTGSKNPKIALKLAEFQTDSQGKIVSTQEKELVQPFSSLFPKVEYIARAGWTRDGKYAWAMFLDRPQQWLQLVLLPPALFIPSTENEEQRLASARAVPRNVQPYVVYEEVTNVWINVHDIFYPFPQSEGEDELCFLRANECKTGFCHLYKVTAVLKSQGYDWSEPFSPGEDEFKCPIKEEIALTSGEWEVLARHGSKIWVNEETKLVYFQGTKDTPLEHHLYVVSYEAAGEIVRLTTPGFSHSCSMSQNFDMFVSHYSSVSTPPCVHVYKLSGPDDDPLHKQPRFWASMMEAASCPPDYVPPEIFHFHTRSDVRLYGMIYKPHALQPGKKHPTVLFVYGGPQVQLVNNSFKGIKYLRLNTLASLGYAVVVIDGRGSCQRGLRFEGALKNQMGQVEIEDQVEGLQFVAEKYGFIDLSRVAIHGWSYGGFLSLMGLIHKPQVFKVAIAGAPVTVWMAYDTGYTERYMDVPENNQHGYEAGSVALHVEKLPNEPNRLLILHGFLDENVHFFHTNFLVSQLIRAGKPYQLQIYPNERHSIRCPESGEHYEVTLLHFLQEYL

Structure (SMILES)	IC50 [1] [µM]	DPP 7 IC50 [2]	IC50 [3] [µM]	IC50 [4] [µM]	IC50 [5] [µM]	FAP IC50 [3]	DPP 8 IC50 [4]	DPP 9 IC50 [5]	IC50 [2] [µM]
COC(=O)c1cc2nc(N3CCC[C@@H](N)C3)n(Cc3ccccc3C#N)c(=O)c2s1 [Compound 38, (R)-methyl 2-(3-aminopiperidin-1-yl)-3-(2-cyanobenzyl)-4-oxo-3,4-dihydrothieno[3,2-d]pyrimidine-6-carboxylate]	0.0115	N.I.				N.I.	N.I.	N.I.	
Cl.N#Cc1ccccc1Cn1c(N2CCC[C@@H](N)C2)nc2cc(C(=O)O)sc2c1=O [Compound 39, (R)-2-(3-aminopiperidin-1-yl)-3-(2-cyanobenzyl)-4-oxo-3,4-dihydrothieno-[3,2-d]pyrimidine-6-carboxylic acid hydrochloride]	0.0283	N.I.				N.I.	N.I.	N.I.	
N#Cc1ccccc1Cn1c(N2CCC[C@@H](N)C2)nc2cc(C(=O)NC3CC3)sc2c1=O [Compound 40, (R)-2-(3-aminopiperidin-1-yl)-3-(2-cyanobenzyl)-N-cyclopropyl-4-oxo-3,4-dihydrothieno[3,2-d]pyrimidine-6-carboxamide]	0.0183	N.I.	213		266		N.I.		
N#Cc1ccccc1Cn1c(N2CCC[C@@H](N)C2)nc2c(CO)csc2c1=O [Compound 43, (R)-2-((2-(3-aminopiperidin-1-yl)-7-(hydroxymethyl)-4-oxothieno[3,2-d]-pyrimidin-3(4H)-yl)methyl)benzonitrile]	0.0189	N.I.				N.I.	N.I.	N.I.	
COC(=O)C1CCN(Cc2csc3c(=O)n(Cc4ccccc4C#N)c(N4CCC[C@@H](N)C4)nc23)CC1 [Compound 54, (R)-methyl 1-((2-(3-aminopiperidin-1-yl)-3-(2-cyanobenzyl)-4-oxo-3,4-dihydrothieno[3,2-d]pyrimidin-7-yl)-methyl)piperidine-4-carboxylate]	0.238					N.I.	N.I.	N.I.	39.2
N#Cc1ccccc1Cn1c(N2CCC[C@@H](N)C2)nc2c(CN3CCOCC3)csc2c1=O [Compound 55, (R)-2-((2-(3-aminopiperidin-1-yl)-7-(morpholinomethyl)-4-oxothieno-[3,2-d]pyrimidin-3(4H)-yl)methyl)-benzonitrile]	0.0178	N.I.				N.I.	N.I.	N.I.	
COC(=O)c1csc2c(=O)n(Cc3ccccc3C#N)c(N3CCC[C@@H](N)C3)nc12 [Compound 57, (R)-methyl 2-(3-aminopiperidin-1-yl)-3-(2-cyanobenzyl)-4-oxo-3,4-dihydrothieno[3,2-d]pyrimidine-7-carboxylate]	0.02					N.I.	N.I.	N.I.	69.5
COC(=O)[C@@H](NC(=O)c1csc2c(=O)n(Cc3ccccc3C#N)c(N3CCC[C@@H](N)C3)nc12)C(C)C [Compound 59, (S)-methyl 2-(2-((R)-3-aminopiperidin-1-yl)-3-(2-cyanobenzyl)-4-oxo-3,4-dihydrothieno[3,2-d]pyrimidine-7-carboxamido)-3-methylbutanoate]	0.0266	N.I.	49.5	35	187				
N#Cc1ccccc1Cn1c(N2CCC[C@@H](N)C2)nc2c(C(=O)NCCO)csc2c1=O [Compound 60, (R)-2-(3-aminopiperidin-1-yl)-3-(2-cyanobenzyl)-N-(2-hydroxyethyl)-4-oxo-3,4-dihydrothieno[3,2-d]-pyrimidine-7-carboxamide]	0.0133	N.I.	57.1	36.8	110				
CNC(=O)c1csc2c(=O)n(Cc3ccccc3C#N)c(N3CCC[C@@H](N)C3)nc12 [Compound 61, (R)-2-(3-aminopiperidin-1-yl)-3-(2-cyanobenzyl)-N-methyl-4-oxo-3,4-dihydrothieno[3,2-d]pyrimidine-7-carboxamide]	0.0139	N.I.	30.3	45.9	254				
N#Cc1ccccc1Cn1c(N2CCC[C@@H](N)C2)nc2cc(C(=O)N3CCC[C@H]3CO)sc2c1=O [Compound 128, 2-((2-((R)-3-aminopiperidin-1-yl)-6-((S)-2-(hydroxymethyl)pyrrolidine-1-carbonyl)-4-oxothieno[3,2-d]pyrimidin-3(4H)-yl)methyl)benzonitrile]	0.0307	N.I.		39				N.I.	
CCOC(=O)C1CCN(C(=O)c2cc3nc(N4CCC[C@@H](N)C4)n(Cc4ccccc4C#N)c(=O)c3s2)CC1 [Compound 129, (R)-ethyl 1-(2-(3-aminopiperidin-1-yl)-3-(2-cyanobenzyl)-4-oxo-3,4-dihydrothieno[3,2-d]pyrimidine-6-carbonyl)piperidine-4-carboxylate]	0.0339	N.I.		16.3				N.I.	

More lines, in order of falling IC50 [1], values ahead:

IC50 [1] [µM]	DPP 7 IC50 [2]	IC50 [3] [µM]	IC50 [4] [µM]	IC50 [5] [µM]	FAP IC50 [3]	DPP 8 IC50 [4]	DPP 9 IC50 [5]	IC50 [2] [µM]	Structure (SMILES)
0.0113	N.I.				N.I.	N.I.	N.I.		CC(=O)OCc1csc2c(=O)n(Cc3ccccc3C#N)c(N3CCC[C@@H](N)C3)nc12 [Compound 56, (R)-(2-(3-aminopiperidin-1-yl)-3-(2-cyanobenzyl)-4-oxo-3,4-dihydrothieno-[3,2-d]pyrimidin-7-yl)methyl acetate]
0.0102	N.I.	85.9	27	35.2					N#Cc1ccccc1Cn1c(N2CCC[C@@H](N)C2)nc2cc(CO)sc2c1=O [Compound 28, (R)-2-((2-(3-aminopiperidin-1-yl)-6-(hydroxymethyl)-4-oxothieno[3,2-d]-pyrimidin-3(4H)-yl)methyl)benzonitrile]
0.00976					N.I.	N.I.	N.I.	39.2	N#Cc1ccccc1Cn1c(N2CCC[C@@H](N)C2)nc2c(C(=O)O)csc2c1=O [Compound 44, (R)-2-(3-aminopiperidin-1-yl)-3-(2-cyanobenzyl)-4-oxo-3,4-dihydrothieno-[3,2-d]pyrimidine-7-carboxylic acid hydrochloride]
0.00872	N.I.		14.3		N.I.		N.I.		CCOC(=O)CNC(=O)c1csc2c(=O)n(Cc3ccccc3C#N)c(N3CCC[C@@H](N)C3)nc12 [Compound 58, (R)-ethyl 2-(2-(3-aminopiperidin-1-yl)-3-(2-cyanobenzyl)-4-oxo-3,4-dihydrothieno[3,2-d]pyrimidine-7-carboxamido)acetate]
0.00357	N.I.				N.I.	N.I.	N.I.		N#Cc1ccccc1Cn1c(N2CCC[C@@H](N)C2)nc2c(C(N)=O)csc2c1=O [Compound 45, (R)-2-(3-aminopiperidin-1-yl)-3-(2-cyanobenzyl)-4-oxo-3,4-dihydrothieno-[3,2-d]pyrimidine-7-carboxamide]
